Where a name gives a salt, the structure may show the parent alone. Read-outs that look alike come from different tables or passages of the source.
Experiments:
Assay type in all cases: cell-based
HIV (TM) [1] = test: 4 day HIV-induced syncytium inhibition assay in MT-2 cells; conditions: for EC100: Human immunodeficiency virus 1, MT2, 96 h, read-out: concentration for complete/full protection of MT-2 cells from the formation of syncytia; for protective effect against the development of HIV-induced syncytia: among the dimers, 4 day assay, in words
Procedure: An isolate of HIV (TM) was obtained from the culture supernatant of normal peripheral blood mononuclear cells infected with virus isolated from a patient with AIDS. Supernatant from H9 cells infected with HIV (TM) was aliquoted at peak reverse transcriptase activity and kept frozen at -85° C. until use. HIV (TM) infectivity assays using sequential fivefold dilutions (performed in quadruplicate) determined the infectious virus titer (Reed-Muench method) to be 10^4.5 TC ID50 per ml.
(§1) Target MT-2 cells (an HTLV-I immortalized CD4+lymphoblastoid cell line) were propagated in growth medium (D-MEM supplemented with 15% heat-inactivated fetal bovine serum, 2mM glutamine, and 1% penicillin-streptomycin).
(§2) Target MT-2 cells were exposed to DEAE-dextran (25 ug/ml, Sigma) for 20 minutes, washed and infected with HIV (TM) (MOI=0.001) at 37° C. for 1 hour. MT-2 cells (3×10^5 per ml) were placed in growth medium and transferred to a 24-well plastic tray followed by the addition of drug. The cells were carried at 37° C. in humidified air containing 5% CO2 for 14 days. Every 3-4 days, the medium was changed and fresh drug added. At each change of medium, cells and supernatants were assayed for measures of HIV expression. Uninfected and infected MT-2 cells without exposure to drug were used as controls. All cultures were performed in triplicate on two sets of experiments.
MT-2 cells were chosen because of their sensitivity to HIV infection with the formation of giant syncytia that are quantifiable. The cytopathic effect of HIV could be monitored as a function of the input virus inoculum. When MT-2 cells were monitored in a 14 day assay, a MOI of 0.001 gave rise to the formation of syncytia after 4 days (>400 per well) and peak reverse transcriptase levels by day 8.
To investigate the inhibitory effects of the drugs on HIV-induced syncytia formation, the nucleoside dimers were compared to their monomers and their combinations at multiple concentrations in a 4 day syncytium inhibition assay.

[2] = Cytotoxicity (cell viability, trypan blue exclusion) in uninfected MT-2 cells; conditions: human; day 14, uninfected MT-2 cells; mean of triplicate cultures from two sets of experiments; linear regression; read-out: ID50 (drug concentration required to reduce the number of uninfected MT2 cells by 50%)
Procedure: as §1
(§3) MT-2 cells (2×10^5 cells per ml) were exposed to multiple drug concentrations (performed in triplicate). The medium was changed every 3-4 days, followed by the addition of fresh drug. Cell viability was determined by the trypan blue exclusion method and compared to controls without drug.
(§4) The comparative HIV inhibitory effects of nucleosides and the novel nucleoside dimers are shown on Table 1. The 50% inhibitory dose (ID50) and 50% effective dose (ED50) of each compound were calculated using linear regression analysis from the results of a 14 day assay that monitored cell viability and the expression of HIV antigen by cellular fluorescence.
(§5) The growth inhibitory effects of the compounds on MT-2 cells that were not exposed to the virus were compared. According to their ID50, the compounds could be classified into three major groups. […] When the cytotoxic effects of the compounds were tested against the human cell lines H9 and U937, similar toxicity profiles were seen.
(§6) from two sets of experiments. Linear regression analysis was used to
(§7) determine the ID50 and ED50. ID50, drug concentration
(§8) required to reduce the number of uninfected MT2 cells by 50% on day 14.

MT-2 cells = test: as above; conditions: uninfected MT-2 cells, in words
Procedure: as §1, §3, §4, §5, §6, §7, §8

[3] = system: Reverse transcriptase (RT); test: Inhibition of reverse transcriptase activity in culture supernatant of HIV-infected H9 cells; conditions: for Reverse Transcriptase activity in culture supernatant: H9 cells, MOI = 1.0
Procedure: *Target cells = H9 cells. MOI = 1.0. Media changes with the addition of
fresh drug were performed at 3-4 day intervals. Results are expressed as
CPMReverse Transcriptase activity per ml in culture supernatant. CPM
>5,000 signifies abnormal elevations in Reverse Transcriptase activity.
The results represent the mean of duplicate studies in one experiment.

HIV (TM) [4] = test: HIV infectivity assay in MT-2 cells (HIV antigen expression by immunofluorescence, 14 days); conditions: for EC50: read-out: ED50 (drug concentration achieving 50% inhibition of HIV expression assessed by immunofluorescence); for CTI, cytotherapeutic index (ID50/ED50): ID50/ED50, day 14, MT-2 cells; for anti-HIV activity profile according to ED50 / cytotherapeutic index, ranking: in words
Procedure: An isolate of HIV (TM) was obtained from the culture supernatant of normal peripheral blood mononuclear cells infected with virus isolated from a patient with AIDS. Supernatant from H9 cells infected with HIV (TM) was aliquoted at peak reverse transcriptase activity and kept frozen at -85° C. until use.
as §1, §2
*The results are expressed as the arithmetic mean of triplicate cultures
as §6
ED50, drug concentration achieving 50% inhibition of HIV expression
assessed by immunofluorescence on day 14.

[5] = 1 Ug/ml, day 7, control (no drug) 11,000
[6] = 1 Ug/ml, day 11, control (no drug) 38,000
[7] = 1 Ug/ml, day 14, control (no drug) 34,000
[8] = 5 Ug/ml, day 7, control (no drug) 11,000
[9] = 5 Ug/ml, day 11, control (no drug) 38,000
[10] = 5 Ug/ml, day 14, control (no drug) 34,000
[11] = Human immunodeficiency virus 1, MT2, 336 h

Structure (SMILES): Cc1cn([C@H]2C[C@H](N=[N+]=[N-])[C@@H](COP(=O)(OCCC#N)OC[C@@H]3CC[C@H](n4cnc5c(N)ncnc54)O3)O2)c(=O)[nH]c1=O (stereo partly shown) [AZT-P(CyE)-ddA]
- EC100 (HIV (TM) [1]): 0.5 µM
- protective effect against the development of HIV-induced syncytia (HIV (TM) [1]): strongest protective effect
- CC50 at 336 h [2]: 210 µM
- toxicity group according to ID50 (MT-2 cells): moderate toxicity
- Reverse Transcriptase activity in culture supernatant [3, 5]: 6,000 CPM per ml
- Reverse Transcriptase activity in culture supernatant [3, 6]: 43,000 CPM per ml
- Reverse Transcriptase activity in culture supernatant [3, 7]: 36,000 CPM per ml
- Reverse Transcriptase activity in culture supernatant [3, 8]: 1,000 CPM per ml
- Reverse Transcriptase activity in culture supernatant [3, 9]: 4,500 CPM per ml
- Reverse Transcriptase activity in culture supernatant [3, 10]: 12,000 CPM per ml
- EC50 (HIV (TM) [4]; [11]): 0.7 µM
- CTI, cytotherapeutic index (ID50/ED50) (HIV (TM) [4]; 20160 min): 300
- anti-HIV activity profile according to ED50 (HIV (TM) [4]): most potent
- cytotherapeutic index, ranking (HIV (TM) [4]): highest

Structure (SMILES): Cc1cn(C2CC(N=[N+]=[N-])C(COP(=O)(O)OCC3OC(n4cc(C)c(=O)[nH]c4=O)CC3N=[N+]=[N-])O2)c(=O)[nH]c1=O (stereo not shown) [AZT-P-AZT, reference compound]
- CC50 at 336 h [2]: 60 µM
- toxicity group according to ID50 (MT-2 cells): highest toxicity
- EC50 (HIV (TM) [4]; [11]): 1.5 µM
- CTI, cytotherapeutic index (ID50/ED50) (HIV (TM) [4]; 20160 min): 40
- anti-HIV activity profile according to ED50 (HIV (TM) [4]): most potent

Structure (SMILES): Cc1cn([C@H]2C[C@H](N=[N+]=[N-])[C@@H](COP(=O)(O)OC[C@@H]3CC[C@H](n4cnc5c(N)ncnc54)O3)O2)c(=O)[nH]c1=O [AZT-P-ddA, azido-beta-thymidine-2',3'-dideoxyadenosine phosphate ammonium salt]
- EC100 (HIV (TM) [1]): 0.5 µM
- protective effect against the development of HIV-induced syncytia (HIV (TM) [1]): strongest protective effect
- CC50 at 336 h [2]: 200 µM
- toxicity group according to ID50 (MT-2 cells): moderate toxicity
- Reverse Transcriptase activity in culture supernatant [3, 5]: 1,500 CPM per ml
- Reverse Transcriptase activity in culture supernatant [3, 6]: 12,000 CPM per ml
- Reverse Transcriptase activity in culture supernatant [3, 7]: 26,500 CPM per ml
- Reverse Transcriptase activity in culture supernatant [3, 8]: 500 CPM per ml
- Reverse Transcriptase activity in culture supernatant [3, 9]: 500 CPM per ml
- Reverse Transcriptase activity in culture supernatant [3, 10]: 500 CPM per ml
- activity in RT assay compared with AZT ([3]; in words): comparable to that of AZT
- EC50 (HIV (TM) [4]; [11]): 0.8 µM
- CTI, cytotherapeutic index (ID50/ED50) (HIV (TM) [4]; 20160 min): 250
- anti-HIV activity profile according to ED50 (HIV (TM) [4]): most potent
- cytotherapeutic index, ranking (HIV (TM) [4]): highest

Structure (SMILES): Cc1cn([C@H]2C[C@H](N=[N+]=[N-])[C@@H](COP(=O)(O)OC[C@@H]3CC[C@H](n4cnc5c(=O)[nH]cnc54)O3)O2)c(=O)[nH]c1=O [AZT-P-ddI, azido-β-thymidine-2',3'-dideoxyinosine phosphate ammonium salt]
- CC50 at 336 h [2]: 240 µM
- toxicity group according to ID50 (MT-2 cells): moderate toxicity
- duration of inhibition of the enzyme (RT) ([3]; 1 ug/ml): at least 11 days
- Reverse Transcriptase activity in culture supernatant [3, 5]: 1,000 CPM per ml
- Reverse Transcriptase activity in culture supernatant [3, 6]: 3,000 CPM per ml
- Reverse Transcriptase activity in culture supernatant [3, 7]: 10,000 CPM per ml
- Reverse Transcriptase activity in culture supernatant [3, 8]: 1,000 CPM per ml
- Reverse Transcriptase activity in culture supernatant [3, 9]: 1,500 CPM per ml
- Reverse Transcriptase activity in culture supernatant [3, 10]: 25,000 CPM per ml
- EC50 (HIV (TM) [4]; [11]): 1 µM
- CTI, cytotherapeutic index (ID50/ED50) (HIV (TM) [4]; 20160 min): 240
- anti-HIV activity profile according to ED50 (HIV (TM) [4]): most potent
- cytotherapeutic index, ranking (HIV (TM) [4]): highest

Structure (SMILES): Nc1ncnc2c1ncn2[C@H]1CC[C@@H](CO)O1 [ddA, 2',3'-dideoxyadenosine, reference compound]
- EC100 (HIV (TM) [1]): 10 µM
- CC50 at 336 h [2]: 400 µM
- toxicity group according to ID50 (MT-2 cells): least toxicity
- Reverse Transcriptase activity in culture supernatant ([3]; 1 uM, day 7, control (no drug) 11,000): 5,500 CPM per ml
- Reverse Transcriptase activity in culture supernatant ([3]; 1 uM, day 11, control (no drug) 38,000): 45,000 CPM per ml
- Reverse Transcriptase activity in culture supernatant ([3]; 1 uM, day 14, control (no drug) 34,000): 39,500 CPM per ml
- Reverse Transcriptase activity in culture supernatant ([3]; 10 uM, day 7, control (no drug) 11,000): 500 CPM per ml
- Reverse Transcriptase activity in culture supernatant ([3]; 10 uM, day 11, control (no drug) 38,000): 3,000 CPM per ml
- Reverse Transcriptase activity in culture supernatant ([3]; 10 uM, day 14, control (no drug) 34,000): 4,500 CPM per ml
- EC50 (HIV (TM) [4]; [11]): 7 µM
- CTI, cytotherapeutic index (ID50/ED50) (HIV (TM) [4]; 20160 min): 57
- anti-HIV activity profile according to ED50 (HIV (TM) [4]): weaker activities

Structure (SMILES): O=c1[nH]cnc2c1ncn2[C@H]1CC[C@@H](CO)O1 [ddI, 2',3'-dideoxyinsine, reference compound]
- CC50 at 336 h [2]: 450 µM
- toxicity group according to ID50 (MT-2 cells): least toxicity
- CTI, cytotherapeutic index (ID50/ED50) (HIV (TM) [4]; 20160 min): 60
- EC50 (HIV (TM) [4]; day 14, HIV-infected MT-2 cells, MOI 0.001, mean of triplicate cultures from two sets of experiments, linear regression, 20160 min): 7.5 µM
- anti-HIV activity profile according to ED50 (HIV (TM) [4]): weaker activities
